Data published in patent US20150174202A1, “Methods and Compositions for Modulating Beta Cell Proliferation” (The Board of Trustees of the Leland Stanford Junior …, priority 2011, published 2015).
Entries after “also recorded” stand apart in the source; their conditions may differ.

Legend:
Assay type in all cases: cell-based
PDGFRA [1] = experiment: PDGFRA expression in human islets exposed to 5-aza-C
Text: (§1) The CpG tool of the UCSC genome browser (v257) identifies two CpG islands upstream of the translational start site of the mouse Pdgfra gene, spanning the regions −9040/−9610 and −5662/−5054 (FIG. 20). The more 3′ promoter-proximal CpG island at −5662/−5054 aligns well with regions associated with histone H3K4me1 and H3K4me3, marks of enhancers or cis-regulatory elements, with lesser overlap in the more 5′ CpG island at −9040/−9610. There are also two CpG islands within the −3,600 to +118 region of the human PDGFRA promoter-proximal region, and evidence exists that DNA methylation within the most 3′ CpG island regulates PDGFRA expression (Toepoel et al 2008). […] These findings indicate that DNA methylation and associated chromatin remodeling regulates expression of islet β-cell PDGFRA.

PDGFRA [2] = experiment: PDGFRA expression in mouse islets exposed to 5-aza-C
Text: as §1

Ezh2 [3] = experiment: Ezh2/Ezh1 expression in cultured mouse islets (real-time RT-PCR, western blot); conditions: 2 days; for effect of inhibitor on PDGF-AA-induced Ezh2 expression: 3 week-old mouse islets, PDGF-AA plus inhibitor; for Ezh2 mRNA levels after mitogen exposure: juvenile mouse islets exposed to insulin or prolactin
Procedure: Mouse pancreatic islets were purified as described in Chen et al. (2009) Genes Dev. 23, 975-985 and used immediately for assays described in the text. To study Ezh2 induction in cultured islets exposed to mitogens, freshly isolated islets from 2-3-week old, and 7-12-month old C57BL/6 mice were recovered and equilibrated overnight at 37° C., 5% CO2 in RPMI-1640 medium supplemented with 0.5% fetal bovine serum (FBS), 0.2% bovine albumin (BSA) and 2% penicillin/streptomycin. Afterwards, islets were distributed into microplates or dishes, and treated with recombinant human PDGF-AA, prolactin or insulin (Sigma), with or without addition of pharmacological inhibitors, including Sunitinib (Selleck), […]0126 (Sigma), LY294002 (Sigma) or U-73122 (Sigma) at the indicated concentrations. Two days later, islets were harvested for RNA or protein extraction for real-time RTPCR or western blot analyses. To detect phosphorylation of Pdgfr-α by western blot, islets were exposed to PDGF-AA (with or without indicated pharmacological inhibitors) for 90 min before islet harvesting and protein extraction. To detect in vitro islet β-cell proliferation stimulated by PDGF-AA, a final concentration of 50 μM BrdU was introduced into each culture dish 24 h before harvest, followed by standard histological processing. Immunostaining of BrdU and insulin was performed on processed islets, and β-cell proliferation rate was determined by quantifying percentage of insulin+ cells with BrdU+. Culture experiments of human islets were performed using a similar procedure described later. Total RNA from freshly isolated or cultured islets after indicated treatments were purified using the Absolutely RNA miniprep purification kit (Stratagene) according to the manufacturer's instructions. RNA concentration was measured with a RiboGreen RNA quantification assay (Invitrogen). One-step quantitative RT-PCR was performed and analysed using an ABI Prism 7300 detection system (Applied Biosystems) with TaqMan one-step RTPCR Master Mix Reagents and appropriate amounts (10-100 ng) of islet total RNA as the template. We calculated the ratio of mRNA for the gene of interest to the amount of internal control mRNA of peptidylprolyl isomerase A (cyclophilin A, PPIA), and then normalized the ratio for each gene to its median. For western blots, total islet protein was prepared from freshly isolated or cultured islets after indicated treatments as described in Chen et al. (2009) Genes Dev. 23, 975-985. Equal amounts of protein were resolved on SDS-PAGE and transferred to polyvinylidine fluoride membranes (Amersham Pharmacia) for immunoblotting with specific antibodies, including rabbit polyclonal anti-human Ezh2 (1:1,000, Millipore), rabbit polyclonal anti-phospho-PDGFR-α ([…]) (1:1,000, Santa Cruz Biotechnologies), rabbit monoclonal anti-PDGFR-α (1:1,000, Cell Signaling), mouse monoclonal anti-β-actin (1:4,000, Sigma), rabbit monoclonal anti-Akt (1:1,500, Cell Signaling), rabbit monoclonal anti-phospho-Ark ([…]) (1:1,000, Cell Signaling), rabbit monoclonal anti-p44/42 MAPK (Erk1/2) (1:1,500, Cell Signaling), rabbit monoclonal anti-phospho-p44/42 MAPK (Erk1/2) […]) (1:1,000, Cell Signaling), rabbit monoclonal anti-PLCγ1 (1:1,000, Cell Signaling) and rabbit monoclonal anti-phospho-PLCγ1 ([…]) (1:1,000, Cell Signaling). Signal was visualized using ECL detection (Amersham Pharmacia) on Kodak film after further incubation with HRP-conjugated secondary antibodies. For phospho-PDGFR-α ([…]) and PDGFR-α detection, signal was amplified by incubating the membrane with biotinylated anti-rabbit-IgG (1:2,000), followed with an incubation with HRP-avidin (1:2,000, Vector Laboratories) and then ECL visualization.

mouse islet β-cells = experiment: In vitro mouse islet β-cell proliferation (BrdU incorporation); conditions: 3 week-old mouse islets, PDGF-AA 50 ng/ml plus inhibitor (Sunitinib 2 μM, Vargatef 5 μM), 2 days
Procedure: Mouse pancreatic islets were purified as described in Chen et al. (2009) Genes Dev. 23, 975-985 and used immediately for assays described in the text. To study Ezh2 induction in cultured islets exposed to mitogens, freshly isolated islets from 2-3-week old, and 7-12-month old C57BL/6 mice were recovered and equilibrated overnight at 37° C., 5% CO2 in RPMI-1640 medium supplemented with 0.5% fetal bovine serum (FBS), 0.2% bovine albumin (BSA) and 2% penicillin/streptomycin. Afterwards, islets were distributed into microplates or dishes, and treated with recombinant human PDGF-AA, prolactin or insulin (Sigma), with or without addition of pharmacological inhibitors, including Sunitinib (Selleck), […]0126 (Sigma), LY294002 (Sigma) or U-73122 (Sigma) at the indicated concentrations. Two days later, islets were harvested for RNA or protein extraction for real-time RTPCR or western blot analyses. To detect phosphorylation of Pdgfr-α by western blot, islets were exposed to PDGF-AA (with or without indicated pharmacological inhibitors) for 90 min before islet harvesting and protein extraction. To detect in vitro islet β-cell proliferation stimulated by PDGF-AA, a final concentration of 50 μM BrdU was introduced into each culture dish 24 h before harvest, followed by standard histological processing. Immunostaining of BrdU and insulin was performed on processed islets, and β-cell proliferation rate was determined by quantifying percentage of insulin+ cells with BrdU+. […] For measuring pancreatic β-cell mass or BrdU by morphometry, three to six mice for each group were analysed. At least five sections separated by more than 300 μm (pancreases) or 50 μm (cultured islets) were immunostained and assessed for each sample. Images were analysed with an ImagePro program by observers blinded to genotype, and pancreatic β-cell mass and percentage of BrdU+β-cells were calculated as described in Chen et al. Polycomb protein Ezh2 regulates pancreatic 6-cell Ink4a/Arf expression and regeneration in diabetes mellitus. […]

EZH2 [4] = experiment: EZH2/EZH1 mRNA in cultured human islets (real-time RT-PCR); conditions: juvenile human islets, PDGF-AA 50 ng/ml with Sunitinib 2 μM or U0126 10 μM, 2 days
Procedure: Total RNA from freshly isolated or cultured islets after indicated treatments were purified using the Absolutely RNA miniprep purification kit (Stratagene) according to the manufacturer's instructions. RNA concentration was measured with a RiboGreen RNA quantification assay (Invitrogen). One-step quantitative RT-PCR was performed and analysed using an ABI Prism 7300 detection system (Applied Biosystems) with TaqMan one-step RTPCR Master Mix Reagents and appropriate amounts (10-100 ng) of islet total RNA as the template. We calculated the ratio of mRNA for the gene of interest to the amount of internal control mRNA of peptidylprolyl isomerase A (cyclophilin A, PPIA), and then normalized the ratio for each gene to its median. For islet studies, human islets were isolated either at Pittsburgh University Medical Center or the University of Alabama, Birmingham. Eight independent human islet preparations from juvenile donors at the age of 8 months, 1.0, 1.5, 2, 3, 4, 5 and 6 years, and three adult islet preparations from donors at the age of 39, 48 and 56 years were used in this study. After isolation, fresh islets were hand-picked and transferred to RPMI-1640 medium supplemented with 0.5% FBS, 0.2% BSA and 2% penicillin/streptomycin for an overnight recovery before experiments. […] To detect in vitro human islet β-cell proliferation stimulated by PDGF-AA, human islets were exposed to 50 μM BrdU for 24 h. Afterwards, human islets were processed in a similar way as in mouse islet studies for immunostaining of insulin, glucagon, PDX1 and BrdU. β-Cell proliferation rate was determined by quantifying percentage of insulin+ cells with BrdU+. More than 50 islets per group were counted for determining cultured human islet β-cell proliferation rate.

human islet β-cells = experiment: In vitro human islet β-cell proliferation (BrdU incorporation); conditions: juvenile human islets, PDGF-AA 50 ng/ml with Sunitinib 2 μM or U0126 10 μM
Text: For islet studies, human islets were isolated either at Pittsburgh University Medical Center or the University of Alabama, Birmingham. Eight independent human islet preparations from juvenile donors at the age of 8 months, 1.0, 1.5, 2, 3, 4, 5 and 6 years, and three adult islet preparations from donors at the age of 39, 48 and 56 years were used in this study. After isolation, fresh islets were hand-picked and transferred to RPMI-1640 medium supplemented with 0.5% FBS, 0.2% BSA and 2% penicillin/streptomycin for an overnight recovery before experiments. […] To detect in vitro human islet β-cell proliferation stimulated by PDGF-AA, human islets were exposed to 50 μM BrdU for 24 h. Afterwards, human islets were processed in a similar way as in mouse islet studies for immunostaining of insulin, glucagon, PDX1 and BrdU. β-Cell proliferation rate was determined by quantifying percentage of insulin+ cells with BrdU+. More than 50 islets per group were counted for determining cultured human islet β-cell proliferation rate.

In the case of Nc1ncn([C@@H]2O[C@H](CO)[C@@H](O)[C@H]2O)c(=O)n1 [5-aza-C, 5-aza-cytidine], the “derepression of PDGFRA” value (PDGFRA [1]) is reported as “dosage-dependent derepression; also recorded: dosage-dependent de-repression” and the “derepression of PDGFRA” value (PDGFRA [2]) is reported as “dosage-dependent derepression; also recorded: dosage-dependent de-repression”.

N#CC(=C(/N)Sc1ccccc1N)/C(C#N)=C(\N)Sc1ccccc1N [U0126, reference compound] was tested, and the “effect of inhibitor on PDGF-AA-induced Ezh2 expression” value (Ezh2 [3]) was “blocked; also recorded: attenuates”, the “effect of inhibitor on PDGF-AA-increased β-cell BrdU incorporation” value (mouse islet β-cells) was “blocked; also recorded: attenuates” and the “effect of inhibitor on PDGF-AA-increased EZH2 mRNA” value (EZH2 [4]) was “blocked”. The “effect of inhibitor on PDGF-AA-increased β-cell BrdU incorporation” value (human islet β-cells) was “eliminated”.

In the case of COC(=O)c1ccc2c(c1)NC(=O)/C2=C(\Nc1ccc(N(C)C(=O)CN2CCN(C)CC2)cc1)c1ccccc1 [Vargatef, reference compound], the “effect of inhibitor on PDGF-AA-induced Ezh2 expression” value (Ezh2 [3]) is reported as “eliminated” and the “effect of inhibitor on PDGF-AA-increased β-cell BrdU incorporation” value (mouse islet β-cells) is reported as “eliminated”.

For insulin, the “Ezh2 mRNA levels after mitogen exposure” value (Ezh2 [3]) was “did not detectably alter” and the “Ezh2 mRNA levels after mitogen exposure” value (Ezh2 [3]; listed as Insulin) was “did not induce”.
